What was measured:
HMalT (His-tagged MalT) [1] = target: T1, HMalT (His-tagged MalT) (Escherichia coli, UniProt P06993); assay: filter-binding assay, dissociation of [α-32P]ADP complex chased by cold ADP; details: labelled compound; resting form, no maltotriose; buffer B pH 8.0, 10 mM Mg acetate, 25°C; 1 mM cold ADP chase
T1 construct: full-length, His-tagged; purified on Ni2+ resin then Superdex 200; monomeric in resting form, multimerizes with maltotriose and ATP
T1 sequence (P06993 1-901): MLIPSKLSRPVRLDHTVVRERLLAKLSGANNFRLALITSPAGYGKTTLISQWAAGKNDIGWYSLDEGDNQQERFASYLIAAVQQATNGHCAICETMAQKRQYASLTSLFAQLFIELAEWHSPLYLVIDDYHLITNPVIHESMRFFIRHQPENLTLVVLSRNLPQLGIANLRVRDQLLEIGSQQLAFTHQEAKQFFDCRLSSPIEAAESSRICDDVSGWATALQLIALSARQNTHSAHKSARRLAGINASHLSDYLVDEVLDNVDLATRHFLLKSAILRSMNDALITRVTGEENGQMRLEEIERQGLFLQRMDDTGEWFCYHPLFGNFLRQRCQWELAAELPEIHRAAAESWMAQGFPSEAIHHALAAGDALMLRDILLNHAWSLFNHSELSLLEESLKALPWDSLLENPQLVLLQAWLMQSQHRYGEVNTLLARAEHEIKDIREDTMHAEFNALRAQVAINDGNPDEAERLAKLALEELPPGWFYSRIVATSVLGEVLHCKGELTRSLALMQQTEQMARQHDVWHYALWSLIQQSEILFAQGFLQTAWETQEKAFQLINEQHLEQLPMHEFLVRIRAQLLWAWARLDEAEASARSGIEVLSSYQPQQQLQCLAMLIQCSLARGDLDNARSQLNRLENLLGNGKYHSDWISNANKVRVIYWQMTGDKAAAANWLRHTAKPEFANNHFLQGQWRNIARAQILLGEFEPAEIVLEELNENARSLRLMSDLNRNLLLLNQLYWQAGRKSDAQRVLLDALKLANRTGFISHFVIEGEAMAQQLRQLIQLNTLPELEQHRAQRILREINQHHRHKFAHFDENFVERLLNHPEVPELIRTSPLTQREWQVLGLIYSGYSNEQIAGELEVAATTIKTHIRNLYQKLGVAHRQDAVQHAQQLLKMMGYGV

HMalT (His-tagged MalT) [2] = target: T2, HMalT (His-tagged MalT) (Escherichia coli, UniProt P06993, Q70C/E395C); assay: as above; details: labelled compound; oxidized form (C70-C395 disulfide), no DTT, with or without 20 mM maltotriose; buffer B pH 8.0, 10 mM Mg acetate, 25°C; 1 mM cold ADP chase
T2 construct: full-length, His-tagged; purified on Ni2+ resin then Superdex 200; monomeric in resting form, multimerizes with maltotriose and ATP

HMalT (His-tagged MalT) [3] = target: T2, HMalT (His-tagged MalT); assay: limited proteinase K proteolysis protection (arm-sensor hinge), SDS-PAGE quantification, binding isotherm; details: 50 mM HEPES pH 8.0, 10.1 mM Mg acetate, 0.44 mM ATP, 25°C; no reducing agent: oxidized form, C70-C395 disulfide locks NOD closed; full saturation assumed at 50 mM; read-out: KD (apparent dissociation constant)
HMalT (His-tagged MalT) [4] = target: T1, HMalT (His-tagged MalT); assay: as above; details: 50 mM HEPES pH 8.0, 10.1 mM Mg acetate, 0.44 mM ATP, 25°C; no reducing agent; full saturation assumed at 50 mM; read-out: KD (apparent dissociation constant)
[5] = target: T3, HMalT^336-806 (arm-sensor polypeptide) (Escherichia coli, UniProt P06993); assay: intrinsic tryptophan fluorescence titration, quadratic fit; assay type: binding; details: 20 mM Tris-HCl pH 8.0, 0.2 M KCl, 20°C; 1 μM protein; excitation 295 nm, emission 323 nm
T3 construct: gene malT; arm-sensor fragment, residues 336-806, His-tagged; purified on Ni2+ resin then Superdex 200
T3 sequence (P06993 336-806): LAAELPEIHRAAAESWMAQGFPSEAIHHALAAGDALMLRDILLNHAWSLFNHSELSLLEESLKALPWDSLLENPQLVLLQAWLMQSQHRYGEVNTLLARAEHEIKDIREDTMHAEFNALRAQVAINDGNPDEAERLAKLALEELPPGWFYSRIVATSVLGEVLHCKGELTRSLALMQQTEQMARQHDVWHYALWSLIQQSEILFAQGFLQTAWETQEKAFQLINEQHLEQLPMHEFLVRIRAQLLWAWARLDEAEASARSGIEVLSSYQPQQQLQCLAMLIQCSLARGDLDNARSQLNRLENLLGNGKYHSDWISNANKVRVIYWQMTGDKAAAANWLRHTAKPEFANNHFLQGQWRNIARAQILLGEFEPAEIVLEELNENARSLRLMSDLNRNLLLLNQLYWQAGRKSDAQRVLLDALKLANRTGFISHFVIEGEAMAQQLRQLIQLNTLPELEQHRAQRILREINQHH

T2 sequence (P06993 whole entry Q70C/E395C): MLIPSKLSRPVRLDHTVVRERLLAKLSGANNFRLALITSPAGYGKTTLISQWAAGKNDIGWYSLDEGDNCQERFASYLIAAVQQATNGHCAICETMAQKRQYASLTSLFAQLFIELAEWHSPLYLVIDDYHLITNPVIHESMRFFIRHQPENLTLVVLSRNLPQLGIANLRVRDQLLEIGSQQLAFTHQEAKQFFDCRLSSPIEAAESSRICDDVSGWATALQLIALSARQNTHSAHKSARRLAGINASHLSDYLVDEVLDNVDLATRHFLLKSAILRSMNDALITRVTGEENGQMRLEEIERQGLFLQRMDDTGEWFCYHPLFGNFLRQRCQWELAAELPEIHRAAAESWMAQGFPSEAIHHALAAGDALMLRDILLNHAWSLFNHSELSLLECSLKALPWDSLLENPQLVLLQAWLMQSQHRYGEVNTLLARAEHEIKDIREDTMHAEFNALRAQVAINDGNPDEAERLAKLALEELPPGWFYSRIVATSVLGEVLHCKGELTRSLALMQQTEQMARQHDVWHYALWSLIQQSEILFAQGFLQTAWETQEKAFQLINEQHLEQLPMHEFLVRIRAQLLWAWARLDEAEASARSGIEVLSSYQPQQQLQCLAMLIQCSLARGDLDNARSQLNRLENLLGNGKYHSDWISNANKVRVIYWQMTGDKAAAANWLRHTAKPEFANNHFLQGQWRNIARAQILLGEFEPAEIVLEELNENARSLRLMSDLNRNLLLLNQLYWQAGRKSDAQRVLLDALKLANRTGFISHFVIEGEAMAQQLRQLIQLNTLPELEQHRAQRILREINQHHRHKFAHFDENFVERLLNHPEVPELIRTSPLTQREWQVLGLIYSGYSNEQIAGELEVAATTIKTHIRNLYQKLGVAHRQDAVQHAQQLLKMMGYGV

In the case of `Nc1ncnc2c1ncn2[C@@H]1O[C@H](COP(=O)(O)OP(=O)(O)O)[C@@H](O)[C@H]1O` [ADP], the t1/2 (HMalT (His-tagged MalT) [1]) is reported as 1.98 ± 0.183 h and the t1/2 (HMalT (His-tagged MalT) [2]) is reported as over 8.33 h.

In the case of `OC[C@H]1O[C@H](O[C@H]2[C@H](O)[C@@H](O)[C@@H](O[C@H]3[C@H](O)[C@@H](O)C(O)O[C@@H]3CO)O[C@@H]2CO)[C@H](O)[C@@H](O)[C@@H]1O` (some centres unmarked) [maltotriose], the Kd (HMalT (His-tagged MalT) [3]) is reported as 2600 ± 500 µM, the Kd (HMalT (His-tagged MalT) [4]) is reported as 131 ± 12 µM and the Kd [5] is reported as 2.7 ± 1.2 µM.

Source: PMC4381067, “How ‘arm-twisting’ by the inducer triggers activation of the MalT transcription factor, a typical signal transduction ATPase with numerous domains (STAND)” (Nucleic Acids Research, 2015)
